139 molecules from the pKa sets of Baltruschat and Czodrowski (2020) can be followed below.

Structures are written as SMILES.

Take `c1c[nH]c(Cc2[nH]cc[nH+]2)n1`: the pKa (basic group) is 4.9. `CCOc1ccc(O)cc1` showed a pKa (acidic group) of 10.2. `CC(=O)c1c(C)cc(C)cc1C` gave a pKa (acidic group) of 10.7. For the setting “acidic group”, `CC(=O)NC(Cc1c[nH]c[nH+]1)C(=O)O` (centres undefined) yielded a pKa of 2.94. The molecule `Cc1c(C(=O)O)[nH]c2ccccc12` showed a pKa (acidic group) of 4.33. With `[NH3+]c1ccc(-c2ncc(-c3ccc(Cl)cc3)o2)cc1`, the pKa (basic group) was -0.1. The molecule `Nc1cccc(I)c1` showed a pKa (basic group) of 3.59.

Regarding `C[NH+](C)CCN`, under “basic group”, the pKa was found to be 6.63. `Cc1nc(C)nc(N)n1` displayed a pKa (basic group) of 3.6. Under “acidic group”, `NC(=O)[C@H]1CC(=O)N[C@@H]1C(=O)O` had a pKa of 3. Consider `CC(C)NCC(=O)c1ccc([O-])cc1`, for which, where the note is “basic group”, the pKa was found to be 9.58. As for `O/N=C1\CCCc2nonc21`, the pKa (acidic group) was determined as 8.78. In turn, `COc1ccc(-c2nnn[nH]2)cc1` registered a pKa (acidic group) of 4.23. `Cn1cnc(=O)c(-c2ccccc2)c1` gave a pKa (basic group) of 1.99. `OC(c1ccccc1)(c1ccccc1)c1ccccn1` returned a pKa (basic group) of 3.9. For the setting “basic group”, `Cc1cc(-c2ncc[nH]2)n[nH]1` showed a pKa of 6.16. Consider `O=C(O)c1c2ccccc2[nH+]c2ccccc12`, for which, where the note is “acidic group”, the pKa is 3. As for `C[NH+](C)CCCCCNC(=O)/C=N/O`, under “acidic group”, the pKa came out at 8.88. For the molecule `[NH3+]CCNC(=S)S`, the pKa (acidic group) was found to be 2. Where the note is “basic group”, `[O-]c1cc2ccccc2nn1` came in with a pKa of 8.61. `CC[NH+](CC)CC(C)Nc1c2ccc(Cl)cc2nc2ccc(OC)cc12` (centres undefined) returned a pKa (basic group) of 7.15. `CC(=O)Nc1ccc(C2CCC[NH+]2C)cn1` (centres undefined) yielded a pKa (basic group) of 2.2. On to `Cc1ccccc1OC(C)C(=O)O` (centres undefined), for which the pKa (acidic group) was 3.37.

Molecule `C[C@@H]1CNC[C@H](C)N1` returned a pKa (basic group) of 9.86. As to `CCCCCCCCCCNCCC(=O)[O-]`, under “basic group”, the pKa stood at 10.6. In turn, `Cc1ccc(S(N)(=O)=O)cc1` showed a pKa (acidic group) of 9.89. With `CC1(C)C(=O)CC(=O)CC1=O`, under “acidic group”, the pKa worked out at 4.2. As to `CCOCCNc1ccc(OC)cc1`, the pKa (basic group) stood at 4.99. Turning to `c1cc2c(nn1)CCCC2`, the pKa (basic group) came out at 4.3. For the setting “acidic group”, `CC1(C)SC(=S)NC1=O` had a pKa of 5.38. Molecule `O=c1ccc(O)ccc1O` gave a pKa (acidic group) of 6.47.

`Cc1nn(C)c(C)c1Cl` returned a pKa (basic group) of 1.96. `NCCC[NH3+]` displayed a pKa (basic group) of 8.77. The molecule `COc1cc(/C=N/c2ncc3nc[nH]c3n2)ccc1O` yielded a pKa (acidic group) of 8.91 and a pKa (basic group) of 2.79. The molecule `CCCCCCCCCCCCCCN(CC(O)CC)CC(O)CC` (centres undefined) registered a pKa (basic group) of 5.7. `O=C(O)CCCc1ccccc1`: the pKa (acidic group) was 4.78. Turning to `O=[N+]([O-])c1cccc2cn[nH]c12`, where the note is “basic group”, the pKa is -0.83. For the setting “acidic group”, `O=C(O)[C@@H](P)CC[C@H](P)C(=O)O` displayed a pKa of 3.62. Take `CCOC(=O)c1ccccc1-n1nc(O)c(CC)c1C`: for the setting “acidic group”, the pKa was found to be 12.4.

In the case of `O=S(=O)(O)c1cccc(C(F)(F)F)c1`, the pKa (acidic group) is -6.93.

As for `CN(C)C1CCCCC1`, the pKa (basic group) amounted to 10.5. Regarding `Cc1cc(=O)oc2ccc(O)cc12`, where the note is “acidic group”, the pKa is 9.14. Under “acidic group”, `O=C(O)c1ccc(Br)s1` returned a pKa of 3.3.

Turning to `O=C(O)/C=C/c1ccco1`, the pKa (acidic group) amounted to 4.29. The molecule `NCC/C(N)=N/O` came in with a pKa (basic group) of 9.15.

`Cc1cc(C(c2ccc(N)cc2)c2ccc(N)cc2)ccc1N` displayed a pKa (basic group) of 4.9. The molecule `CCC1CN1CC` (centres undefined) showed a pKa (basic group) of 8.19.

Molecule `Cc1cc(C)c(C)nn1` showed a pKa (basic group) of 4.81. The molecule `CS(=O)(=O)NC(N)=O` gave a pKa (acidic group) of 5.1. For `COC1=CC=C2[C@@H]3Cc4ccc(OC)c5c4[C@]2(CCN3C)[C@@H]1O5`, the pKa (basic group) came to 8.15.

With `Cc1cccc(O)c1C(=O)Oc1ccccc1`, the pKa (acidic group) stood at 8.63. The molecule `OCC(S)C[S-]` (centres undefined) registered a pKa (acidic group) of 10.6. As for `c1ccc(CNc2ncnc3[nH]ncc23)cc1`, the pKa (acidic group) is 10.9 and the pKa (basic group) turned out to be 4.16. For `O=[N+]([O-])c1n[nH]c(-n2cnc(Cl)n2)n1`, where the note is “acidic group”, the pKa stood at 1.59. `CNc1nnc(-c2ccccc2)s1` gave a pKa (basic group) of 2.8. The same measure, in the same setting: then `c1ccc(C2CN2)cc1` (centres undefined), with 6.47. On to `Cc1n[nH]c2c(N)ncnc12`, for which, under “basic group”, the pKa stood at 5.02. The molecule `[NH3+][C@@H](Cc1nc[nH]c1I)C(=O)[O-]` yielded a pKa (basic group) of 4.18. `Cn1/c(=N\N)sc2ccccc21` displayed a pKa (basic group) of 6.1. As to `CC(C)CC(=O)CC(=O)C(F)(F)F`, the pKa (acidic group) was 6.52.

For `COc1ccc(B(O)O)cc1`, the pKa (acidic group) came out at 9.32. `CCN(CC)CCCN(CC)CC` came in with a pKa (basic group) of 10.2.

Take `Cc1cc(C)[n+](C)c([S-])n1`: the pKa (basic group) is 3.15. Under “acidic group”, `CCN(CC)C(=S)NC(=O)c1ccccc1` came in with a pKa of 8.45. Same read-out and setting: to `OC(c1ccncc1)(c1ccncc1)c1ccccn1` belongs 12.4; to `O=C(c1ccc(Cl)cc1)c1cc[nH]n1`, 11.9; to `Cc1cc(C)nc(NS(=O)(=O)c2ccc(O)cc2)n1`, 7.52.

The molecule `CCCC(C)C1C(=O)NC(=S)N=C1[O-]` (centres undefined) returned a pKa (acidic group) of 11.4.

Consider `CC1(C)SCNC1C(=O)[O-]` (centres undefined), for which, where the note is “basic group”, the pKa is 6.34.

For `N/C(=N\O)c1ccccc1`, for the setting “basic group”, the pKa stood at 4.97. As for `Cc1ccc2c(c1)sc(-c1ccc(N(C)C)cc1)[n+]2C`, for the setting “basic group”, the pKa was 2.69. For `O=[PH](O)C([NH2+]Cc1cccc[nH+]1)c1ccccc1O` (centres undefined), the pKa (acidic group) was determined as 2.4. Under “basic group”, `Cc1cc(C)c2ccc3c(C)cc(C)nc3c2n1` gave a pKa of 6.5.

`O=[N+]([O-])c1cccc(S(=O)O)c1` registered a pKa (acidic group) of 1.21. In the case of `O=C(O)C1CC1(Cl)Cl` (centres undefined), the pKa (acidic group) came to 3.51. Where the note is “basic group”, `Cc1cccc(C)c1N(C)C` returned a pKa of 5.85. In the case of `O/N=C/c1ccc(O)cc1`, the pKa (acidic group) worked out at 8.78. As for `Oc1cc[nH+]cc1`, the pKa (acidic group) came to 4.04.

As for `N/C(=N\O)C(N)c1ccccc1` (centres undefined), under “basic group”, the pKa turned out to be 7.15. Molecule `COc1ccc(C2CCC[NH+]2C)cn1` (centres undefined) registered a pKa (basic group) of 1.34. In turn, `c1ccc(NCC[NH+]2CCCCC2)cc1` returned a pKa (basic group) of 2.8. Molecule `NCCCCCC#CC#CCCC(=O)[O-]` displayed a pKa (basic group) of 10.7. On to `[NH3+]CC(=O)NCCc1c[nH]cn1`, for which the pKa (basic group) was determined as 6.76.

`CC#CC#CCC(=O)O` showed a pKa (acidic group) of 3.23. For the molecule `C[n+]1ccc(NN)c2ccccc21`, the pKa (basic group) was 2.61. With `Oc1cc[nH+]c2ccccc12`, the pKa (acidic group) was determined as 2.27. Take `O=C([O-])CN=C1CCCCC1`: for the setting “basic group”, the pKa was 9.48.

Regarding `CCCCCCCCCCCCCCCCCCN`, for the setting “basic group”, the pKa is 10.6.

The molecule `CCN(CC)Cc1cn2nc(-c3ccccc3)cc(C)c2n1` gave a pKa (basic group) of 8.79. Where the note is “acidic group”, `Cc1ccc(S(=O)(=O)Nc2ccccc2)cc1` came in with a pKa of 8.46. Still for that read-out and setting: to `Cn1nc(Cl)nc1NN=O` belongs 4.03.

`O[C@@H]1[C@H](O)[C@@H](n2cnc3cncnc32)OC[C@@H]1O`: for the setting “basic group”, the pKa came to 1.8. Molecule `O=Cc1ncccc1O` showed a pKa (acidic group) of 6.95 and a pKa (basic group) of 3.4. For the setting “basic group”, `CCCCNc1cc[nH+]c([O-])n1` yielded a pKa of 4.69. Take `O=C(O)c1sccc1[N+](=O)[O-]`: the pKa (acidic group) was found to be 2.68. For `CCOC(=O)COc1ccc(C(=O)c2ccc([O-])c(CN)c2)c(Cl)c1Cl`, the pKa (basic group) was 10.6. `Nc1cnc([S-])nc1N` gave a pKa (basic group) of 10.4.

The molecule `c1ccc(Oc2ccccn2)cc1` showed a pKa (basic group) of 2.35. Turning to `CC/N=C(\N=[N+]=[N-])c1ccccc1O`, for the setting “acidic group”, the pKa came out at 9.4. With `CC(=N\O)/C(CN(C)C)=N\O`, the pKa (acidic group) was 10.6 and the pKa (basic group) worked out at 8.4. For the setting “acidic group”, `O=C1[N-]C(=O)/C(=N/O)C(=O)N1` returned a pKa of 10.1. As for `Cn1nnnc1N`, the pKa (basic group) is 1.82. For the molecule `Cc1cc(C)n(Cc2cc(C)n(C)n2)[nH+]1`, under “basic group”, the pKa came to 0.6. Molecule `O=C(O)C(c1ccc(C2CCCCC2)cc1)C(O)c1ccccc1` (centres undefined) registered a pKa (acidic group) of 4.24. The molecule `CC(=O)CCN1CCOCC1` yielded a pKa (basic group) of 6.66. Still for that read-out and setting: to `CN(C)c1ccc(N)cc1` belongs 6.37. `C=CC(=O)OCCN(C)C` showed a pKa (basic group) of 7.9. In turn, `NC(=O)C#CC#C/C=C/C(=O)O` gave a pKa (acidic group) of 3.52. Molecule `O=Cc1ccc2ccccc2n1` came in with a pKa (basic group) of 3.1. In the case of `Nc1cccc2[nH+]cccc12`, under “basic group”, the pKa came to 0.97. In turn, `[NH3+]CCNCCO` yielded a pKa (basic group) of 6.66.

Molecule `C[NH+](C)CCCNc1c([N+](=O)[O-])cnc2ccccc12` registered a pKa (basic group) of 4.43. `CC(C=C(c1cccs1)c1cccs1)N1CCCCC1` (centres undefined) returned a pKa (basic group) of 8.46. `Fc1ccc2[nH]cnc2c1`: the pKa (basic group) worked out at 5.11. Take `COc1cc(C)nc(-n2nc(C)cc2O)n1`: the pKa (acidic group) was 6.9. Where the note is “basic group”, `CC(C)[C@@H]1CC[C@@H](C)C[C@@H]1N` displayed a pKa of 10.5. Where the note is “basic group”, `C/N=c1/scc(C)n1C` showed a pKa of 9.97. Molecule `CCn1nnc(CC(=O)O)n1` yielded a pKa (basic group) of 3.45.

Consider `CN(C)O`, for which, for the setting “basic group”, the pKa worked out at 5.2. On to `COc1ccc(S(N)(=O)=O)cc1`, for which the pKa (acidic group) amounted to 9.93. For the molecule `NNC(=O)c1ccccn1`, the pKa (acidic group) worked out at 11.8 and the pKa (basic group) amounted to 2.86. Molecule `CC(O)(C(=O)O)c1ccccc1` (centres undefined) showed a pKa (acidic group) of 3.53.

For the molecule `O=C(O)Cc1ccsc1`, the pKa (acidic group) was 4.07. Under “acidic group”, `CN(C)c1cccc2c(S(=O)(=O)NCC(=O)O)cccc12` returned a pKa of 4.4. The same measure, in the same setting: then `O=C([O-])[C@@H]1CC[C@@H](C(=O)O)[Se]1`, with 4.35; and `CC(=O)c1cccc(NS(=O)(=O)C(F)(F)F)c1`, with 3.75. Still for that read-out and setting: to `Cc1cc(Cl)ccc1O` belongs 9.6. The molecule `C=CC1CN2CCC1C[C@H]2C(=O)[O-]` (some centres undefined) displayed a pKa (basic group) of 10.6. Still for that read-out and setting: to `Cc1cccc(C(C)c2c[nH]cn2)c1C` (centres undefined) belongs 7.04. `O=C([O-])CS` gave a pKa (acidic group) of 10.2. The same measure, in the same setting: to `CC1=C(C)/C(=C(\C)C(=O)O)CC1=O` belongs 3.1; to `CC(C)(C)c1cc(/C=C/Cl)cc(C(C)(C)C)c1O`, 11.8.

Regarding `[O-]c1nncc2ccccc12`, under “basic group”, the pKa is 12. Under “basic group”, `O=C([O-])[C@@H]1CSCN1` showed a pKa of 6.14. `CCCC(=O)OO` came in with a pKa (acidic group) of 8.2. For the setting “basic group”, `c1ccc(-c2nnc(-c3ccccc3)o2)cc1` came in with a pKa of 1.96. For the molecule `Cc1cccc2c1C(=O)NC2=O`, the pKa (acidic group) worked out at 10.5. For the molecule `O=C(O)CCC(=O)NOCc1ccccc1`, for the setting “acidic group”, the pKa was 4.6. Consider `c1cncc(-c2ccc[nH]2)c1`, for which, for the setting “basic group”, the pKa came to 4.32.

The term pKa denotes the pH at which an ionisable group is half protonated.
